{"source": "patent US11351130B2", "about": "“Prevention and reversal of inflammation induced DNA damage” (Indiana University Research and Technology Corporation, priority 2017, dated 2022)", "tested_on": "APE1", "assay": "APE1 expression (immunoblotting) after siRNA", "type": "cell-based, rat", "details": "100 nM siRNA", "description": "Small interfering RNAs to APE1 (APE1siRNA) and scrambled siRNA (SCsiRNA) controls were used to decrease APE1 protein expression in sensory neuronal cell cultures and as controls, respectively, as described previously (Vasko et al., 2005, Jiang et al., 2008a). On day 3 in culture, the growth media was replaced with 0.5 ml of Opti-MEM 1 media containing 100 nM of APE1siRNA (5′-[…]-3′ (SEQ ID NO:1)) or SCsiRNA (5′-[…]-3′(SEQ ID NO:2)); (Vasko et al., 2005)) and 10 μl of the transfecting reagent, Neuroporter. On the next day, 0.5 ml of the growth media without antibiotics was added to each well, and after an additional 24 hours the media containing siRNA was replaced with normal growth media.\nTissues or cells were harvested, lysed in RIPA buffer (Santa Cruz Biotechnology; Santa Cruz, Calif., USA), sonicated, and cleared of cellular debris by centrifuging at 4000 RPM for 2 minutes. Protein was quantified using Lowry assay, and electrophoresed in a 12% SDS-polyacrylamide gel. […] Antibody binding was detected following appropriate secondary antibody methods using chemiluminescence. The density of the bands was measured using Quantity One software from Bio-Rad (Hercules, Calif.) and data expressed as density normalized to vinculin."}
{"substance": "APE1siRNA: Small interfering RNA to APE1, 5′-GUCUGGUAAGACUGGAGUACC-3′ (SEQ ID NO:1) (chemistry not given here)", "values": [{"measurement": "APE1 expression relative to wildtype expression", "value": "~20", "unit": "%"}]}
